# Results from the Deep4Chem optical property database.
# Assay: photoluminescence quantum yield (fraction); solvent given as SMILES
compound,measurement,setting,value
COc1ccc(-c2cc3c(ccc4sc(/C=C/c5cccs5)cc43)s2)cc1,photoluminescence quantum yield,in ClCCl,0.28
C[Si](C)(c1cccc2ccccc12)c1c2ccccc2cc2ccccc12,photoluminescence quantum yield,in C1CCCCC1,0.72
same,photoluminescence quantum yield,in CC#N,0.62
CCN(CC)c1ccc2cc(C#N)/c(=N\C(=O)C(C)C)oc2c1,photoluminescence quantum yield,in CCO,0.047
same,photoluminescence quantum yield,in ClCCl,0.83
c1ccc(-c2nc3c(-c4ccc(N(c5ccccc5)c5ccccc5)cc4)ccc(-c4ccc(N(c5ccccc5)c5ccccc5)cc4)c3nc2-c2ccccc2)cc1,photoluminescence quantum yield,in ClC(Cl)Cl,0.51
Cc1c(COC(=O)Cc2cccc3ccccc23)n2c(OCC(=O)Cc3cccc4ccccc34)c(C)c(=O)n2c1=O,photoluminescence quantum yield,in CCO,0.84
c1ccc2c(c1)-c1ccccc1C21c2ccccc2-c2oc3c(c21)C1(c2ccccc2-c2ccccc21)c1ccccc1-3,photoluminescence quantum yield,in C1CCOC1,0.39
O=c1cc2c(Br)c(O)c3cccc4ccc(o1)c2c43,photoluminescence quantum yield,in CC1CCCO1,0.15
C(#Cc1ncc(-c2ccccc2)o1)c1ccco1,photoluminescence quantum yield,in ClCCl,0
N#CC1=CC(c2ccccc2)=CC(C#N)=P1(c1ccccc1)c1ccccc1,photoluminescence quantum yield,in ClC(Cl)Cl,0.75
COc1ccc(/C=C/c2nc3c4ccccc4c4ccccc4c3o2)cc1,photoluminescence quantum yield,in CC#N,0.35
[O-]c1ccccc1-c1[nH+]c2c3ccccc3c3ccccc3c2o1,photoluminescence quantum yield,in Cc1ccccc1,0.111
c1ccc(B2Nc3cc4c(cc3-c3sc5ccccc5c32)NB(c2ccccc2)c2c-4sc3ccccc23)cc1,photoluminescence quantum yield,in ClCCl,0.27
CC(C)(C)c1ccc(-c2c3cccc4c(-c5ccccc5)cc5c(-c6ccc(C(C)(C)C)cc6)c6cccc7c(-c8ccccc8)cc2c(c76)c5c43)cc1,photoluminescence quantum yield,in ClCCl,0.26
C[C@@]12SC(Cl)=CC1=c1nc(-c3ccccc3)[nH]c1=C1C=C(Cl)S[C@]12C,photoluminescence quantum yield,in CC#N,0.014
CCC1(CC)c2ccccc2-c2c1c1c(c3c2C(CC)(CC)c2cc(B(c4c(C)cc(C)cc4C)c4c(C)cc(C)cc4C)ccc2-3)C(CC)(CC)c2cc(B(c3c(C)cc(C)cc3C)c3c(C)cc(C)cc3C)ccc2-1,photoluminescence quantum yield,in C1CCOC1,0.4
CC1(C)C(/C=C/C2=C(Cl)C(=C/C=C3/N(CCCCCC(=O)O)c4ccccc4C3(C)C)/CCC2)=[N+](CCCCCC(=O)O)c2ccccc21,photoluminescence quantum yield,in CCO,0.119
c1cc2c3c(c1)-c1cccc4cccc(c14)B3c1cccc3cccc-2c13,photoluminescence quantum yield,in Cc1ccccc1,0.9
COc1ccc(-c2cc(-c3ccc(OC)cc3)c3c(N)nc(N4CCCC4)c(C#N)c3n2)cc1,photoluminescence quantum yield,in CC#N,0.095
same,photoluminescence quantum yield,in c1ccccc1,0.077
CC1=[N+]2C(=C(c3ccc4c(c3)Cc3ccccc3-4)c3ccc(C)n3[B-]2(F)F)C=C1c1cc2n(c1)[B-](F)(F)[N+]1=CC=CC1=C2c1c(C)cc(C)cc1C,photoluminescence quantum yield,in C1CCCCC1,0.65
same,photoluminescence quantum yield,in CCOC(C)=O,0.11
CCC1(CC)c2cc(/C=C/c3ccc(/C=C/c4ccc5c(c4)C(CC)(CC)c4cc(N6c7ccccc7Sc7ccccc76)ccc4-5)cc3)ccc2-c2ccc(N3c4ccccc4Sc4ccccc43)cc21,photoluminescence quantum yield,in C1CCOC1,0.33
same,photoluminescence quantum yield,in CC#N,0.26
same,photoluminescence quantum yield,in CCCCCC,0.72
same,photoluminescence quantum yield,in Cc1ccccc1,0.58
same,photoluminescence quantum yield,in ClCCl,0.33
CCCCCCc1ccc(-n2c3c(c4c2c2c(n4-c4ccc(CCCCCC)cc4)-c4cccc(OC)c4NB2c2ccccc2)B(c2ccccc2)Nc2c(OC)cccc2-3)cc1,photoluminescence quantum yield,in Cc1ccccc1,0.62
CCCCc1ccc(-n2c3c(c4c2c2c(n4-c4ccc(CCCC)cc4)-c4ccc(C(F)(F)F)cc4NB2c2ccccc2)B(c2ccccc2)Nc2cc(C(F)(F)F)ccc2-3)cc1,photoluminescence quantum yield,in Cc1ccccc1,0.78
COc1ccc(-c2c3ccc([nH]3)c3nc(c(-c4ccc(C#N)cc4)c4ccc([nH]4)c4ccc([nH]4)c(-c4ccc(OC)cc4)c4ccc2o4)C=C3)cc1,photoluminescence quantum yield,in C1CCOC1,0.072
same,photoluminescence quantum yield,in Cc1ccccc1,0.141
same,photoluminescence quantum yield,in c1ccccc1,0.147
COC(=O)[C@H](Cc1ccc2oc3c(c2c1)=CC1=C(c2ccc(OC)cc2)c2cc4c5cc(C[C@H](NC(=O)OC(C)(C)C)C(=O)OC)ccc5oc4n2[B-](F)(F)[N+]=31)NC(=O)OC(C)(C)C,photoluminescence quantum yield,in C1CCCCC1,0.81
same,photoluminescence quantum yield,in CCOC(C)=O,0.86
same,photoluminescence quantum yield,in CO,0.82
O=C1c2cccc3c(-n4c5ccccc5c5ccccc54)ccc(c23)C(=O)N1c1ccccc1,photoluminescence quantum yield,in C1CCOC1,0.032
same,photoluminescence quantum yield,in CCCCCC,0.887
same,photoluminescence quantum yield,in ClC(Cl)Cl,0.198
same,photoluminescence quantum yield,in ClCCl,0.032
CCCCCCCCC1(CCCCCCCC)c2cc(C#CC#Cc3ccc(N(c4ccccc4)c4ccccc4)cc3)ccc2-c2ccc(C=O)cc21,photoluminescence quantum yield,in C1CCOC1,0.9
same,photoluminescence quantum yield,in C1COCCO1,0.76
same,photoluminescence quantum yield,in CC#N,0.2
same,photoluminescence quantum yield,in CC(C)=O,0.23
same,photoluminescence quantum yield,in CCCCCC,0.5
same,photoluminescence quantum yield,in CCOC(C)=O,0.76
same,photoluminescence quantum yield,in CN(C)C=O,0.16
same,photoluminescence quantum yield,in CS(C)=O,0.2
same,photoluminescence quantum yield,in Cc1ccccc1,0.94
same,photoluminescence quantum yield,in ClC(Cl)Cl,0.09
same,photoluminescence quantum yield,in ClCCl,0.7
C1=Cc2ccc3ccccc3c2N(c2ccccc2)B1c1ccccc1,photoluminescence quantum yield,in C1CCCCC1,0.04
C(#Cc1cc(C#Cc2ccccc2)c(C#Cc2ccccc2)c(C#Cc2ccccc2)c1C#Cc1ccccc1)c1ccccc1,photoluminescence quantum yield,in ClCCl,0.26
C=CCOc1ccc(-c2nc3cc(C(NC(=O)OC(C)(C)C)C(=O)OC)ccc3o2)cc1 (stereo unspecified),photoluminescence quantum yield,in CC1CCCCC1,0.84
same,photoluminescence quantum yield,in CC#N,0.56
same,photoluminescence quantum yield,in CO,0.79
CCN(CC)c1ccc2cc(/C(Cl)=C/C=C/C(=C(C#N)C#N)c3ccc4c(c3)c3ccccc3n4CC)c(=O)oc2c1,photoluminescence quantum yield,in CC(C)=O,0.019
same,photoluminescence quantum yield,in CCOC(C)=O,0.052
same,photoluminescence quantum yield,in CN(C)C=O,0.042
same,photoluminescence quantum yield,in CS(C)=O,0.018
same,photoluminescence quantum yield,in Cc1ccccc1,0.091
same,photoluminescence quantum yield,in ClCCl,0.096
CCn1c2ccccc2c2cc(/C=C/c3cccc(/C=C/c4ccc5c(c4)c4ccccc4n5CC)[n+]3CCCS(=O)(=O)[O-])ccc21,photoluminescence quantum yield,in C1CCOC1,0.1
same,photoluminescence quantum yield,in CC#N,0.03
same,photoluminescence quantum yield,in CC(C)=O,0.03
same,photoluminescence quantum yield,in Cc1ccccc1,0.08
C(=C(c1ccccc1)c1ccccc1)c1ccc(C=C(c2ccccc2)c2ccccc2)cc1,photoluminescence quantum yield,in C1CCOC1,0.017
O=c1[nH]c(=O)n([C@@H]2O[C@H](CO)[C@@H](O)[C@H]2O)cc1-c1cc2ccccc2s1,photoluminescence quantum yield,in C1COCCO1,0.06
same,photoluminescence quantum yield,in CC#N,0.034
same,photoluminescence quantum yield,in CO,0.047
same,photoluminescence quantum yield,in O,0.035
CC/[NH+]=c1\cc2oc3cc(NCCC(=O)NC(CCC(=O)OC)C(=O)OC)c4ccccc4c3nc-2cc1C (stereo unspecified),photoluminescence quantum yield,in CCO,0.48
same,photoluminescence quantum yield,in O,0.16
COC(=O)c1ccc(C2=C3C(C)=CC(C)=[N+]3[B-](F)(F)n3c(/C=C/c4c[nH]cn4)cc(C)c32)cc1,photoluminescence quantum yield,in ClC(Cl)Cl,0.93
N#C/C(=C(/C#N)c1ccc(-c2ccncc2)cc1)c1ccc(-c2ccncc2)cc1,photoluminescence quantum yield,in ClCCl,0.002
C/C=C/c1cc(OC)cc(OC)c1,photoluminescence quantum yield,in CC#N,0.05
same,photoluminescence quantum yield,in CCCCCC,0.04
CCCCCCOc1cc(C=O)c(OCCCCCC)cc1C=O,photoluminescence quantum yield,in ClCCl,0.208
CCN1C(=O)C(C2C(=O)c3c4ccccc4cc4cc5ccccc5c2c34)C(=O)N(CC)C1=S (stereo unspecified),photoluminescence quantum yield,in C1CCOC1,0.205
same,photoluminescence quantum yield,in CCCCCC,0.316
same,photoluminescence quantum yield,in Cc1ccccc1,0.052
same,photoluminescence quantum yield,in ClCCl,0.237
Nc1cc(N)cc(-c2nc3ccccc3s2)c1,photoluminescence quantum yield,in C1CCCCC1,0.102
same,photoluminescence quantum yield,in C1COCCO1,0.06
same,photoluminescence quantum yield,in CC#N,0.05
same,photoluminescence quantum yield,in CC(C)O,0.055
same,photoluminescence quantum yield,in CCOC(C)=O,0.053
same,photoluminescence quantum yield,in CCOCC,0.061
same,photoluminescence quantum yield,in CO,0.015
same,photoluminescence quantum yield,in O,0.0091
CCCCn1c2ccc(C#Cc3cccs3)cc2c2c1c1c3ccc(C#Cc4cccs4)cc3n(CCCC)c1c1c3ccc(C#Cc4cccs4)cc3n(CCCC)c21,photoluminescence quantum yield,in C1CCOC1,0.39
CCCCCCCCCCCCn1cccc1/C=C/c1ccc(OCCCC)c2c(/C=C/c3cccn3CCCCCCCCCCCC)ccc(OCCCC)c12,photoluminescence quantum yield,in Cc1ccccc1,0.35
Oc1ccc2ccc(C3(O)C4CC5CC(C4)CC3C5)cc2c1 (stereo unspecified),photoluminescence quantum yield,in CC#N,0.3
CC(C)=CCN1C(=O)c2cccc3c2c(cc2nc(C)oc23)C1=O,photoluminescence quantum yield,in CCO,0.011
COc1ccc(N(c2ccc(OC)cc2)c2ccc(-c3ccc4c(c3)C(=O)c3ccccc3C4=O)cc2)cc1,photoluminescence quantum yield,in C1CCOC1,0
same,photoluminescence quantum yield,in CCCCCC,0.265
same,photoluminescence quantum yield,in CCOC(C)=O,0
same,photoluminescence quantum yield,in Cc1ccccc1,0.0045
same,photoluminescence quantum yield,in ClC(Cl)(Cl)Cl,0.0538
same,photoluminescence quantum yield,in ClCCl,0
O=c1c2cc(-n3c4ccccc4c4ccccc43)ccc2sc2ccc(-n3c4ccccc4c4ccccc43)cc12,photoluminescence quantum yield,in O=P(c1ccccc1)(c1ccccc1)c1ccccc1Oc1ccccc1P(=O)(c1ccccc1)c1ccccc1,0.412
CCN(CC)c1ccc2cc(C#N)c(=N)oc2c1,photoluminescence quantum yield,in ClCCl,0.84
CCOC(=O)c1sc2nc(C)c(CC)c(C#N)c2c1N,photoluminescence quantum yield,in c1ccccc1,0.054
N#Cc1ccc(-c2cn3cc(-c4ccccc4)c[n+]3[n-]2)cc1,photoluminescence quantum yield,in ClCCl,0.48
COCCOCCOCCN1C(=O)c2cc(NCCOCCO)c3c4c(cc(NCCOCCO)c(c24)C1=O)C(=O)N(CCOCCOCCOC)C3=O,photoluminescence quantum yield,in CO,0.37
same,photoluminescence quantum yield,in ClC(Cl)Cl,0.56
same,photoluminescence quantum yield,in O,0.031
CC(C)c1ccc2ccc3c(C(C)C)ccc4ccc1c2c43,photoluminescence quantum yield,in CCCCCC,0.45
same,photoluminescence quantum yield,in CO,0.55
same,photoluminescence quantum yield,in ClCCl,0.39
CC(C)(C)c1ccc(C2=C(c3ccc(-n4c5ccccc5c5ccccc54)cc3)S(=O)(=O)c3c2sc(-c2ccc(-n4c5ccccc5c5ccccc54)cc2)c3-c2ccc(C(C)(C)C)cc2)cc1,photoluminescence quantum yield,in C1CCOC1,0.056
CC1(C)C(/C=C/C=C/C=C/C=C2/N(S(=O)(=O)[O-])c3ccc(S(=O)(=O)[O-])cc3C2(C)C)=[N+](S(=O)(=O)[O-])c2ccc(S(=O)(=O)[O-])cc21,photoluminescence quantum yield,in CO,0.55
same,photoluminescence quantum yield,in O,0.29
CCCCOc1cc2ccccc2c2c1oc1cc3ccccc3cc12,photoluminescence quantum yield,in C1CCOC1,0.63
CCOC(=O)C1(O)c2cc3ccc4cccc5ccc(c2C(=O)N1C(C)(C)C)c3c45 (stereo unspecified),photoluminescence quantum yield,in ClC(Cl)Cl,0.152
Cc1ccc(/C2=c3\cc/c(o3)=C(\c3ccc(C)cc3)c3ccc([nH]3)-c3ccc4n3[B-](F)(F)[N+]3=C(C=CC3=C4c3cccs3)c3ccc2[nH]3)cc1,photoluminescence quantum yield,in ClC(Cl)Cl,0.09
